Key:
A549 cells = assay: Apoptotic activity by MTT analysis, A549 cells; type: cell-based; conditions: Homo sapiens, A549, 12 h, 15 μM of the compound, mean±standard deviation, read-out: Apoptosis (%) A549 cells
Experimental: (§1) Lung cancer cells (A549), colorectal cancer cells (HCT116), HeLa cells, liver cancer cells (HepG2), T-cell leukemia cells (Jurkat), myeloid leukemia cells (K562), breast cancer cells (MCF-7 and MDA-MB-231) and myelocytic leukemia cells ([…]) were obtained from the American Type Culture Collection (ATCC), and cultured in 10% fetal bovine serum (FBS), 50 units/mL penicillin and 50 units/mL streptomycin-added RPMI 1640 (Invitrogen). The cells were maintained in a humidified 37° C., 5% CO2 atmosphere. The anticancer activity was detected by MTT analysis. Each type of cancer cells were plated in triplicate in a 96-well microtiter plate, and cultured at 37° C. for 24 hours. The cells were treated with each of the compounds prepared above at 37° C. for 12 hours. After the culturing of the cells, 10 μL of an MTT reagent ((3-[4,5-dimethyl-2-thiazolyl]-2,5-diphenyl-2H-tetrazoliumbromide) was added to each well, and cultured for 3.5 hours. The absorbance of each sample was detected using a UV microplate reader (SpectraMax 340PC 384, Molecular Devices) at 570 nm. The detection results were measured as a mean value. The effect of each compound on apoptosis is shown in Table 1.
(§2) The A549 and HeLa cells were treated with 15 μM of the compound for 12 hours. The apoptosis was detected using MTT (mean±standard deviation).

HeLa cells = assay: Apoptotic activity by MTT analysis, HeLa cells; type: cell-based; conditions: Homo sapiens, HeLa, 12 h, 15 μM of the compound, mean±standard deviation, read-out: Apoptosis (%) HeLa cells
Experimental: as §1, §2

SMILES: COc1ccc(-c2nc(-c3cc(C(F)(F)F)cc(C(F)(F)F)c3)n(Cc3ccc(C(=O)NCCOCCOCCOCCN)cc3)c2-c2ccc(OC)cc2)cc1 [Example 200, N-(2-(2-(2-(2-aminoethoxy)ethoxy)ethoxy)ethyl)-4-((2-(3,5-bis(trifluoromethyl)phenyl)-4,5-bis(4-methoxyphenyl)-1H-imidazole-1-yl)methyl)benzamide]
- cytotoxicity at 15 µM (A549 cells): 85 ± 1.44%
- cytotoxicity at 15 µM (HeLa cells): 87 ± 0.78%
